Measured values: US5180742A, “Quinone derivatives, their production and use” (Takeda Chemical Industries, Ltd., priority 1984, dated 1993)

Tests used:
[1] = system: O2^- production in guinea pigs peritoneal macrophages; assay: Inhibitory effect on O2- production in guinea pig peritoneal macrophages (chemiluminescence); assay type: cell-based, guinea pig (Hartley); conditions: Cavia porcellus, Peritoneal macrophage, 3 experiments; for inhibition at 100 µM: 10^-4 M; for inhibition at 10 µM: 10^-5 M; for inhibition at 1 µM: 10^-6 M
Procedure: Superoxide (O2^-) Production in Guinea Pig Peritoneal Macrophages
Male Hartley guinea pigs weighing 400-450 g were given intraperitoneally 5 ml of liquid paraffin. Four days later, 15 ml of Hank's buffer were administered into the peritoneal cavity for harvest of peritoneal cells. Macrophages in the peritoneal cells were purified by the method of Wood, P. R. [J. Immunol. Methods, 28, 117-124 (1979)].
The purity of macrophages was more than 95%. The reaction mixture contained 75 μl of macrophages (1×10^7 cells/ml), 5 μl of luminol, 10 μl of phorbol myristate acetate and 10 μl of drugs in a total volume of 100 μl. O2^- Product was assayed by chemiluminescence. Drugs were dissolved in a 10% dimethyl sulfoxide.

[2] = system: LTD4-induced bronchoconstriction; assay: Effect on LTD4-induced bronchoconstriction in guinea pigs; assay type: in vivo
Procedure: Effect on LTD4 -Induced Brochoconstriction in Guinea Pigs
Bronchoconstriction in guinea pigs was measured by the method of Konzett-Rossler[Naunyn-Schmiedeberg's Arch. exp. Path. Pharmak., 195, 71-74(1940)]. The animals were anesthetized with urethane (1.5 g/kg, intraperitoneally) and the trachea was cannulated. The animals were artificially ventilated by means of a respirator (Harvard apparatus rodent respirator) at a rate of 70 strokes/min and a constant volume of 5-7 ml. Inflation pressure was kept constantly at 10 cm H2 O. Changes in overflow of air from a side-arm of the cannula were recorded on Rectigraph-8S via a bronchospasm transducer for 15 min. LTD4 (10 μg/kg) was given into the […] through an indwelling cannula. Each specimen suspended in a 5% gum arabic solution was also given through the same cannula 1 or 24 hrs before the LTD4 administraction.

5-Lipoxygenase = target: T1, 5-Lipoxygenase (Rattus norvegicus, UniProt P12527); assay: 5-Lipoxygenase inhibitory activity: 5-HETE production in RBL-1 cells (HPLC); assay type: cell-based, rat (RBL-1, rat basophilic leukemia cells); conditions: arachidonic acid + A 23187, 37° C., 20 minutes, read-out: 5-HETE production inhibiting effect (IC50)
T1 construct: endogenous in cells; host or cells: RBL-1 (rat basophilic leukemia cells)
T1 sequence (P12527 1-673): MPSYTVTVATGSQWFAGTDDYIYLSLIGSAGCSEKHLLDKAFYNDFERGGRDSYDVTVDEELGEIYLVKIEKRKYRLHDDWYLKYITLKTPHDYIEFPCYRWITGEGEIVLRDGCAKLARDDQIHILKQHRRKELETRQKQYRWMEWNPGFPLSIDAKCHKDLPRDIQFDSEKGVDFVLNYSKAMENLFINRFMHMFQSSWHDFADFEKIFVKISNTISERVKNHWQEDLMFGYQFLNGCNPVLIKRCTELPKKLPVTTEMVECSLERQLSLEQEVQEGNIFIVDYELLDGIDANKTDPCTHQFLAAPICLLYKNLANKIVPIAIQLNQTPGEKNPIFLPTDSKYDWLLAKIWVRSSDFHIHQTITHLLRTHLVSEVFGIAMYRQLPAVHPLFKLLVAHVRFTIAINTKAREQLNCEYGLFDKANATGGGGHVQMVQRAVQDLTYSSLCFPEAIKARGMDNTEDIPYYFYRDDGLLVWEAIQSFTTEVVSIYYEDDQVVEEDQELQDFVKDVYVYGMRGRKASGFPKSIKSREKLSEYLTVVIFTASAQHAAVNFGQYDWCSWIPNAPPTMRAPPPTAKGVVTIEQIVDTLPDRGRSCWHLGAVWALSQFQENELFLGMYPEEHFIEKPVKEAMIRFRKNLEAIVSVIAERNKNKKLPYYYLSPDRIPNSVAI
Procedure: 5-Lipoxygenase Inhibitory Activity
10^7 RBL-1 cells (rat basophilic leukemia cells) were suspended in 0.5 ml of MCM (mast cell medium), and test solutions (made up of 0.5 ml of MCM, 50 μg of arachidonic acid, 10 μg of A 23187 (calcium ionophore, Eli Lilly) and 1 μM, 0.1 μM, 0.01 μM and0.001 μM as the final concentration of the quinone compound, respectively) prepared previously were added respectively to the suspension, followed by reaction at 37° C. for 20 minutes. After the conclusion of the reaction, 4 ml of ethanol and 1,4-dimethoxy-2-methyl-3-(3-methoxypropyl)naphthalene as the internal reference drug were added to the reaction solution, and the mixture was shaken thoroughly and allowed to stand at room temperature for 10 minutes. Then, it was centrifuged (2000 r.p.m.) for 10 minutes, and the supernatant fluid was separated and concentrated to dryness under reduced pressure. 0.5 Milliliter of 60% aqueous methanol was added to the concentrate, and 100 μl of the resulting solution was taken and subjected to high-performance liquid chromatography to determine amount of 5-HETE (5-hydroxyeicosatetraenoic acid). Determination of 5-HETE was made through measurement of an absorption at 237 nm with a UV absorption monitor.
The 5-HETE production inhibitory effect (IE) was expressed by [formula] wherein a is a peak height or peak area corrected by the peak for the internal reference when the quinone compound is not contained; b is a peak height or peak area corrected by the peak for the internal reference when the quinone compound is contained.

[3] = system: vascular permeability during early response of rat reversed passive Arthus pleurisy; assay: Effects on vascular permeability in rat reversed passive Arthus pleurisy; assay type: in vivo
Procedure: Effects on Increased Vascular Permeability and Slow Reacting Substance of Anaphylaxis (SRS-A) Generation in Rat Reversed Passive Arthus Pleurisy
The rat reversed passive Arthus pleurisy was induced by the method of Yamamoto et al. Agents Actions, 5, 374-377 (1975)]. Rats were given 1 ml of saline containing 5 mg of egg albumin intravenously followed 0.2 ml of rabbit anti-agg albumin antiserum injected into the pleural cavity. Just after that, 0.5 ml of saline contained 1% Evans blue was administered intravenously to the rats. 30 Minutes later, the animals were killed by bleeding, and the pleural cavity was rinsed with 2 ml of saline. The concentrations of the dye in the pleural exudate and the peripheral blood were measured to calculate the volume of serum infiltrated into the pleural cavity. The vascular permeability (dye concentration in pleural cavity/dye concentration in peripheral blood) was expressed as μl serum/30 min. On the other hand, the amount of SRS-A generated in the pleural cavity was determined by the following procedures. 30 Minutes after induction of the pleurisy, the aminals were killed by bleeding and the pleural cavity was rinsed with 2 ml of saline. 9 Milliliter of cold absolute ethanol were immediately added to the rinsed solution. The mixture was allowed to stand at 4° C. for 30 min. After the mixture was centrifuged at 3000 r.p.m. for 10 min, the supernatant was concentrated by evaporation. The resulting residue was dissolved in 0.5 ml of saline. The amount of SRS-A generated was bioassayed using guinea pig ileum.

SMILES	inhibition at 100 µM [1] [%]	inhibition at 10 µM [1] [%]	inhibition at 1 µM [1] [%]	% Inhibition of LTD4-induced bronchoconstriction ([2]; 0.313 mg/kg, 1 hr. before LTD4) [%]	% Inhibition of LTD4-induced bronchoconstriction ([2]; 1.25 mg/kg, 1 hr. before LTD4) [%]	% Inhibition of LTD4-induced bronchoconstriction ([2]; 5 mg/kg, 1 hr. before LTD4) [%]	% Inhibition of LTD4-induced bronchoconstriction ([2]; 5 mg/kg, 24 hrs. before LTD4) [%]	IC50 (5-Lipoxygenase) [nM]	% Inhibition of vascular permeability ([3]; 0.1 mg/rat) [%]	% Inhibition of vascular permeability ([3]; 1 mg/rat) [%]
CC1=C(C)C(=O)C(C(CCCCCC(=O)O)c2ccccc2)=C(C)C1=O (centres unmarked) [Compound No. 50, 7-(3,5,6-trimethyl-1,4-benzoquinon-2-yl)-7-phenylheptanoic acid]	88 ± 2	38 ± 3	16 ± 6	58	77	94	72	28	21	47
CC1=C(C)C(=O)C(C(CCCCCC(=O)O)c2ccc(C)cc2)=C(C)C1=O (centres unmarked) [Compound No. 93]	91 ± 3	33 ± 12	9 ± 6	73	83	85	53	90	14	43
